In PubChem BioAssay (NCI) one finds GI50 and TGI data, which are given here for 13 compounds.

Values joined by “and” are separate entries in the source; they are usually repeats but may differ in a detail not shown here. Identical values can stand only once.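 In this assay, cells in 96-well plates receive the compound at five concentrations for 48 hours. Endpoints are linearly interpolated between the surrounding concentrations. GI50 marks 50% less growth. TGI denotes the concentration required for complete inhibition of growth.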 Where only a bound is given, the exact number is not on record here.

Holding throughout (assay): NCI anticancer screen, dose series, 48 h
The subject of assay [1] is SK-OV-3 ovarian.
The subject of assay [2] is HOP-92 NSCLC.
In assay [3] the test system is SR leukemia.
In assay [4] the test system is MALME-3M melanoma.
Assay [5] relates to OVCAR-5 ovarian.
For assay [6], the system named is A549 NSCLC.
For assay [7], the system named is UO-31 renal.
Assay [8] relates to SF-539 CNS.
For assay [9], the system named is HT29 colon.
Assay [10] has as its system LOX IMVI melanoma.

As for `CCC(C)[C@H](NC(=O)NC(=O)NC(=O)CI)C(=O)OC` (some centres undefined), the GI50 in assay [1] is 17.2 µM; in [2], 2.67 µM; in [3] it was 1.37 µM; in assay [4], 1.89 µM; in assay [5], 15 µM; in assay [6], 19.5 µM. Moreover, the GI50 in assay [7] is 1.73 µM; in [8], 10.3 µM; in [9] it was 1.92 µM; in assay [10] it was 1.69 µM. Further, the TGI in [1] is 31.4 µM; in assay [2], 7.3 µM; in assay [3], 4.15 µM; in assay [4], 4 µM; in assay [5], 32.3 µM; in assay [6], 37 µM. The TGI turned out to be 3.28 µM in assay [7], 22.8 µM in [8], 3.59 µM in [9] and 3.27 µM in [10].

For `COc1ccc(CNC(C)C(=O)O)cc1` (centres undefined), the TGI in [1], in [2], in assay [3], in [4], in assay [5] and in assay [6] was above 100 µM throughout. Further, the TGI in assay [7], in [8], in assay [9] and in assay [10] was above 100 µM each time.

Turning to `Cc1cc2nc3ccc(=[N+](C)C)cc-3sc2cc1N`, the GI50 was 1.98 µM and 3.01 µM in [1]; 1.44 µM and 1.76 µM in assay [2]; 0.419 µM and 0.544 µM in assay [3]; 0.384 µM and 0.223 µM in [4]; 1.37 µM and 0.833 µM in assay [5]; 0.336 µM and 0.381 µM in assay [6]. Moreover, the GI50 in assay [7] is 1.73 µM and 1.61 µM; in assay [8], 0.343 µM and 0.349 µM; in assay [9], 2.09 µM and 2.87 µM; in assay [10], 0.27 µM and 0.301 µM. Moreover, the TGI in assay [1] was 8.08 µM and 34.8 µM and 10.9 µM; in assay [2], 10.1 µM and 38.3 µM and 11.1 µM; in assay [4], 1.8 µM and 6.42 µM and 0.782 µM; in assay [5] it was 3.95 µM and 22.5 µM and 3.42 µM; in assay [6], 1.75 µM and 13.9 µM and 11.2 µM; in [7], 9.11 µM and 25.1 µM and 10.8 µM. Also, the TGI in [8] was 1.64 µM and 8.97 µM and 1.55 µM; in assay [9], 5.45 µM and 22.8 µM and 9.44 µM; in assay [10], 1.37 µM and 8.39 µM and 1.4 µM.

As to `NC(=S)N/N=C/c1ccc(N)cn1`, the TGI in assay [1], in assay [2], in assay [3], in assay [4], in assay [5] and in assay [6] was above 10 µM throughout. Further, the TGI in [7] was 6.97 µM; in assay [8], 2.2 µM; in assay [9], above 10 µM; in assay [10] it was above 10 µM.

On to `CCCC[n+]1c(/C=C\c2c(OC)cc(OC)cc2OC)ccc2ccccc21`, for which the GI50 is 1.98 µM in [1]; 0.502 µM in assay [2]; 0.306 µM in assay [3]; 0.362 µM in [4]; 2.26 µM in assay [5]; 1.18 µM in assay [6]. Moreover, the GI50 was 2.22 µM in assay [7], 1.44 µM in assay [8], 0.663 µM in assay [9] and 0.827 µM in [10]. The TGI in assay [1] is 8.83 µM; in [2] it was 4.8 µM; in assay [3], 30.3 µM; in [4] it was 2.07 µM; in [5], 10.3 µM; in [6], 10.5 µM. The TGI in assay [7] came out at 8.26 µM; in assay [8], 4.65 µM; in assay [9], 4.09 µM; in assay [10] it was 2.58 µM.

In the case of `C[C@]12CCC[C@H](O)[C@H]1C[C@H](CO)CC2`, the TGI in assay [1], in assay [2], in [3], in assay [4], in assay [5] and in assay [6] was above 100 µM in each case. Moreover, the TGI in assay [7], in [8], in [9] and in [10] was above 100 µM in each case.

Take `c1ccc(Nc2nc(-c3ccccn3)cs2)nc1`: the GI50 in assay [1] was 0.74 µM; in [2], 2.49 µM; in assay [3] it was 0.308 µM; in assay [4], 0.156 µM; in assay [5], 2.35 µM; in [6], 0.623 µM. Moreover, the GI50 in assay [7] was 0.0737 µM; in assay [8], 0.825 µM; in assay [9], 0.603 µM; in assay [10], 0.255 µM. In addition, the TGI in assay [1] is above 100 µM; in [2], above 56.5 µM; in [3], 7.95 µM; in assay [4] it was 5.16 µM; in assay [5], above 100 µM; in [6], above 35 µM. In addition, the TGI in assay [7] is 0.711 µM; in assay [8], above 88.7 µM; in assay [9] it was 21.1 µM; in assay [10] it was 6.67 µM.

On to `COc1ccc2c(Cc3c4ccccc4cc4ccccc34)cncc2c1O`, for which the TGI is above 40.5 µM in [1]; 13.2 µM in assay [2]; 0.551 µM in assay [3]; 55 µM in assay [4]; above 57.4 µM in assay [5]; above 39.8 µM in assay [6]. Further, the TGI in [7] is 34.9 µM; in assay [8], 0.546 µM; in assay [9] it was 33.5 µM; in [10], 8.5 µM.

Consider `c1ccc(CN2CCC3(CC2)SSC2(CCN(Cc4ccccc4)CC2)SS3)cc1`, for which the TGI in assay [1], in assay [2], in assay [3], in [4], in [5] and in assay [6] was above 100 µM each time. For the same compound, the TGI in assay [7], in assay [8], in assay [9] and in assay [10] was above 100 µM throughout.

Take `C/C(=N\NC(=S)N1CCN(C2CCCCCC2)CC1)c1ccccn1`: the TGI in assay [1] is 2.96 µM; in assay [2] it was 3.05 µM; in [3], 1.06 µM; in assay [4], 3.09 µM; in assay [5], 3.01 µM; in assay [6] it was 1.86 µM. Further, the TGI in assay [7] was 3.75 µM and 1.5 µM; in assay [8], 2.5 µM and 2.01 µM; in assay [9], 1.84 µM; in assay [10], 5.29 µM and 1.83 µM. Also, the GI50 in assay [2] was 0.00788 µM; in assay [4] it was 0.0382 µM; in assay [7] it was 1.35 µM; in assay [8] it was 0.0294 µM; in assay [10] it was 0.0173 µM.

Turning to `CC[C@@H](C(=O)[C@H](C)[C@H](O)[C@@H](C)[C@H]1O[C@H]([C@@H](CC)C(=O)O)CC[C@H]1C)C1O[C@]2(C=C[C@@H](O)[C@]3(CC[C@@](C)([C@H]4CC[C@](O)(CC)[C@H](C)O4)O3)O2)[C@H](C)C[C@@H]1C` (some centres undefined), the GI50 is 4.1 µM in assay [1]; 0.69 µM in [2]; 0.0827 µM in assay [3]; 0.241 µM in assay [4]; 1.07 µM in [5]; 0.267 µM in assay [6]. The GI50 in assay [7] was 1.42 µM; in assay [8], 0.328 µM; in assay [9] it was 0.357 µM; in assay [10], 0.706 µM. For the same compound, the TGI in assay [1] is 51.1 µM; in assay [2] it was 5.78 µM; in assay [3] it was 5.73 µM; in [4], 1.35 µM; in assay [5], 69.2 µM; in assay [6], 21.6 µM. For the same compound, the TGI turned out to be 23.9 µM in assay [7], 4.05 µM in assay [8], 30.2 µM in assay [9] and 6.56 µM in assay [10].

For `COc1cccc(-n2cc(-c3nc(Nc4cc(C)[nH]n4)c4ccccc4n3)nn2)c1`, the GI50 was 2.34 µM in [1]; 1.67 µM in assay [2]; 2.03 µM in assay [3]; 5.31 µM in [4]; 3.51 µM in [5]; 2.33 µM in [6]. Further, the GI50 is 0.187 µM in [7], 4.25 µM in assay [8], 7.05 µM in [9] and 5.15 µM in assay [10]. The TGI in [1] worked out at 10.8 µM; in assay [2] it was 9.53 µM; in assay [3], 13.5 µM; in assay [4], 13.7 µM; in [5], 12 µM; in [6], 11.4 µM. Besides, the TGI stood at 5.39 µM in assay [7], 11.1 µM in [8], 14.5 µM in assay [9] and 12.3 µM in assay [10].

`O=C1CCCCC=C1C[N+](=O)[O-]`: the GI50 in assay [1] was above 100 µM; in assay [2], 29 µM; in assay [3], 3.7 µM; in assay [4], 30.3 µM; in assay [5] it was 21.9 µM; in assay [6], 38.2 µM. Further, the GI50 in assay [7] was 38.2 µM; in [8], 27.7 µM; in assay [9], 19.3 µM; in assay [10], 18.4 µM. Further, the TGI was above 100 µM in assay [1]; 51.9 µM in assay [2]; 12.3 µM in [3]; 53.5 µM in assay [4]; 41.6 µM in assay [5]; above 100 µM in [6]. Further, the TGI was above 100 µM in assay [7], 74.2 µM in assay [8], 50.3 µM in assay [9] and 39.1 µM in assay [10].
